This is an account of results in paper PMC4724290 (Synapse (New York, N.Y.), 2015).

Assay [1] concerns the target σ2 receptors. Particulars: read-out: Ki for σ2 receptors; ref Kovács and Larson (1995); cited from earlier work.
Assay [2] deals with T1, σ2 receptors (Mus musculus, UniProt Q8VD00).
T1 sequence (Q8VD00 1-176): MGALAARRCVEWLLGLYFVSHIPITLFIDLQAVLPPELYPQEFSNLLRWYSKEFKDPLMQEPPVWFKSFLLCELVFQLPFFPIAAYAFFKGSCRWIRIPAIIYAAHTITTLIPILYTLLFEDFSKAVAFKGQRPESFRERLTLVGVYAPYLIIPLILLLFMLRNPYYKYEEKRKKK
The assay can be described thus: In vitro σ2 receptor binding, [^3H]DTG/. The arrangement: species or system CD-1 mouse.

For assay [3], the target named is T2, σ1 receptors (Mus musculus, UniProt O55242). The assay can be described thus: In vitro σ1 receptor binding, [^3H]. Set-up: species or system CD-1 mouse. The settings on record: for Sigma1 nH: 3.0 nM [^3H](+)pentazocine, 37 °C, 180 min.
T2 sequence (O55242 whole entry): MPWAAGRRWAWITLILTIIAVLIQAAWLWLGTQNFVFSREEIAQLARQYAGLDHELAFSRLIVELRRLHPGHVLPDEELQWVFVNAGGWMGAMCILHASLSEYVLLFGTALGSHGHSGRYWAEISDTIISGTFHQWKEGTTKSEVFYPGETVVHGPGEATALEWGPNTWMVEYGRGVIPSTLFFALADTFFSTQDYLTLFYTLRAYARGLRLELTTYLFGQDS
Assay [4] has as its target σ1 receptors. Particulars: read-out: σ1 Ki; ref Lever et al., 2015; cited from earlier work.
Another assay deals with DAT. The settings on record: read-out: Ki for the DAT (apparent affinity); ref Garcés-Ramírez et al., 2011; cited from earlier work.
The next assay has as its system CD-1 mice. Kind of assay: Locomotor activity: basal and. The assay is classed as in vivo.
Assay [5] concerns the target striatal dopamine transporters (DAT) (Mus musculus, UniProt Q61327). Kind of assay: In vivo DAT occupancy: inhibition of [^125I]RTI-121 specific binding in striatum. Particulars: 10.0 μmol/kg i.p. The arrangement: species or system CD-1 mice.
The subject of another assay is Swiss Webster mice. The settings on record: doses as low as 0.1 mg/kg (0.29 μmol/kg); ref Matsumoto et al., 2001a; cited from earlier work.
Assay [6] concerns the target T2, σ1 receptors. The settings on record: ref Lever et al., 2014b, cited from earlier work.

Where a name gives a salt, the structure may show the parent alone. Some results are limits rather than exact numbers.

Sequence of striatal dopamine transporters (DAT) (Q61327 whole entry): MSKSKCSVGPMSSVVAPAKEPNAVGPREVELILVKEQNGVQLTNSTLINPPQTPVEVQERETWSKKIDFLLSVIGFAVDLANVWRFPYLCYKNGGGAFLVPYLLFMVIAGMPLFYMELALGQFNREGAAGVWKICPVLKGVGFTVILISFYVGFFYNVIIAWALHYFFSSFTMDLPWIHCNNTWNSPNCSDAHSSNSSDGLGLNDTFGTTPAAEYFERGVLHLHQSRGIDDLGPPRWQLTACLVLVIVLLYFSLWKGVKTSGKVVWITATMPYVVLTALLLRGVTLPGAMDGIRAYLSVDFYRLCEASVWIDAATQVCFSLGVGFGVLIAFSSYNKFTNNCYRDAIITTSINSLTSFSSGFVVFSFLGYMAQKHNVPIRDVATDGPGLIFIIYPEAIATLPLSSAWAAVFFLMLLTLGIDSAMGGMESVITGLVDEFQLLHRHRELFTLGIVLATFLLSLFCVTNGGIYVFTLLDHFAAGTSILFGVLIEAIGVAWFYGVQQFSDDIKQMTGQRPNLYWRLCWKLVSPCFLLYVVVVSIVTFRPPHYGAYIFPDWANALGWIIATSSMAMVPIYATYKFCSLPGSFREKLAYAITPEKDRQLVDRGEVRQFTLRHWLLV

Take `COc1ccc2c(c1)[C@]13CCCC[C@@H]1[C@H](C2)N(C)CC3` [Dextromethorphan, dextromethorphan hydrobromide]: the Ki at σ2 receptors [1] is 1740 nM; on σ2 receptors [2] it was 26.8 ± 2.53 µM; on σ1 receptors [3], 63.1 ± 4.5 nM; at σ1 receptors [4], 63 nM. Also, the IC50 on σ2 receptors [2] is 30 ± 2.82 µM; on σ1 receptors [3], 97.5 ± 6.9 nM. Besides, on σ1 receptors [3], the “Sigma1 nH” value was 0.88 ± 0.07.

As to `CN1CCN(CCc2ccc(Cl)c(Cl)c2)CC1` [BD1063, 1-[2-(3,4-dichlorophenyl)ethyl]-4-methylpiperazine], the Ki on DAT is 8 µM. On σ2 receptors [2], this compound displayed an IC50 of 0.843 ± 0.104 µM and a Ki of 0.762 ± 0.094 µM. In addition, the “Sigma2 nH” value at σ2 receptors [2] (3.0 nM [^3H]DTG/500 nM (+)pentazocine, 25 °C, 60 min) was 0.96 ± 0.13. The “Increase of (−)-cocaine-induced hyperactivity” value in the assay with CD-1 mice (3.16 μmol/kg i.p., not statistically significant) is on record as 17%. For the same compound, the “Decrease of (−)-cocaine-induced hyperactivity” value in the assay with CD-1 mice (31.6 μmol/kg i.p., not statistically significant) was 19%. Also, in the assay on CD-1 mice (i.p., E-IA-DM-PE-PIPZE up to 3.16 μmol/kg, BD1063 3.16 and 31.6 μmol/kg, 60 min), the “Effect on basal locomotor activity” value is listed as “did not significantly affect basal activity”. Moreover, at σ1 receptors [3], the “Affinity for σ1 receptors relative to (−)-cocaine (higher)” value is recorded as around 200 fold, the “Affinity for σ1 receptors relative to PD144418 (lower)” value came to 30 fold, the concentration for half-maximal inhibition (IC50) stood at 9.68 ± 1 nM and the Ki was 5.98 ± 0.62 nM. Besides, the “Sigma1 nH” value at σ1 receptors [3] is listed as 1.17 ± 0.08. Also, the “Selectivity Ki Ratio σ2/σ1” value at σ1 receptors [3] (CD-1 mouse whole brain membranes) turned out to be 127. In assay [5], the “Inhibition of striatal [^125I]RTI-121 specific binding” value was “did not inhibit”. For the same compound, in the assay on Swiss Webster mice, the “Protection from (−)-cocaine-induced convulsions” value was “protect”. The “Occupancy of cerebral σ1 receptors” value on σ1 receptors [6] (doses ≥ 3.16 μmol/kg, in the absence of (−)-cocaine) was at least 89%. Besides, on σ1 receptors [6] (same protocol), the “ED50 for σ1 occupancy, brain” value is 0.62 µmol/kg; the “ED50 for σ1 occupancy, heart” value was 0.14 µmol/kg; the “ED50 for σ1 occupancy, lung” value was 0.20 µmol/kg; the “ED50 for σ1 occupancy, spleen” value is 1.47 µmol/kg.
